For this experiment, the target named is microtubule-associated protein tau (Homo sapiens, UniProt P10636). The experiment is classed as biochemical.

The results in this text go back to publication PMC8173610 (Biochemistry, 2021).

Sequence of microtubule-associated protein tau (P10636 1-441 isoform P10636-8): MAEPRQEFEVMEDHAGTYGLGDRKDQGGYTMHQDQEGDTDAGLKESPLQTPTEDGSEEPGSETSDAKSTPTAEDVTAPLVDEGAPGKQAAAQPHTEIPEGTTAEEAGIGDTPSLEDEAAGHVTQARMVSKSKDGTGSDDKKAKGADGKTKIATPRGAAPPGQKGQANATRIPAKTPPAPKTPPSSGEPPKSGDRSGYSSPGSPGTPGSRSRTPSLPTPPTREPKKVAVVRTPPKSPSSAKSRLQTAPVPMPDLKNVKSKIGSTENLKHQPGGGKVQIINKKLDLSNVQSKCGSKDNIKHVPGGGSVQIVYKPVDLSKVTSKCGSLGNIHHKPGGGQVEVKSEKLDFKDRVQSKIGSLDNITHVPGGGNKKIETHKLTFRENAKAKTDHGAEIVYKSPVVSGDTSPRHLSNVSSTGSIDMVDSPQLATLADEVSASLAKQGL

By IC50 is commonly meant the concentration that inhibits the measured activity by half. Lower therefore signals greater potency. As to `CCCCCCCCCc1cc2cc(O)c(C)c(O)c2cn1` [ANTC-15, 7-methyl-3-nonylisoquinoline-6,8-diol], half-maximal inhibition (IC50) required 35 µM.
